Data on one compound can be found in patent US20250195492A1, “USE OF IPTACOPAN FOR THE TREATMENT OF LUPUS NEPHRITIS” (Novartis AG, priority 2022, published 2025).

Each structure is given as a SMILES string. Where only a bound is given, the exact number is not on record here.

One data set relates to alternative pathway. In words: Wieslab assay (least sensitive alternative pathway biomarker), FIH trial CLNP023X2101. The data set is classed as in vivo, human. The conditions noted are these: 200 mg b.i.d. Here is the method: The study will first investigate the treatment effect of iptacopan 200 mg b.i.d. on top of SoC compared to SoC alone (Part 1). This dose was chosen based on the least sensitive alternative pathway biomarker (Wieslab assay); it ensures >90% target inhibition in more than 70% of individuals, as determined from FIH trial CLNP023X2101. Dose range finding with doses between 10 to 200 mg b.i.d was performed in Phase 2 studies in IgAN, C3G and PNH.

Data set [1] in a line: Healthy volunteer studies CLNP023X2101 and CLNP023X1102 (SAD and MAD). It is filed as in vivo.
The subject of a further data set is PNH patients. Kind of data set: Phase 2 studies in PNH (CLNP023X2201 add-on to eculizumab, CLNP023X2204 monotherapy). The data set is classed as in vivo, human.
In a further data set the test system is patients with IgAN. In words: Phase 2 study in patients with IgAN (CLNP023X2203), interim analysis. It is filed as in vivo, human.
Another data set relates to patients with C3G. In words: Phase 2 study in patients with C3G (CLNP023X2202), interim analysis. As to conditions: 200 mg b.i.d. It is filed as in vivo, human.
Where [2] appears, read: 102 subjects, SAD 10 to 400 mg, MAD 10 to 200 mg b.i.d. for 2 weeks.
The mark [3] stands for this setting: 200 mg b.i.d., add-on to eculizumab and monotherapy, majority of patients, preliminary data.
The mark [4] stands for this setting: 200 mg b.i.d. compared to placebo.

As to `CCO[C@H]1CCN(Cc2c(OC)cc(C)c3[nH]ccc23)[C@H](c2ccc(C(=O)O)cc2)C1` [iptacopan, 4-((2S,4S)-(4-ethoxy-1-((5-methoxy-7-methyl-1H-indol-4-yl)methyl)piperidin-2-yl))benzoic acid], the “proportion of individuals with >90% target inhibition” value in the data set with alternative pathway is “more than 70%”. Also, the “target inhibition (Wieslab assay)” value with alternative pathway (reached in more than 70% of individuals) was > 90%. In data set [1] (setting [2]), the “deaths, SAEs, AEs leading to study drug discontinuation” value is “No deaths, serious adverse events (SAEs), or adverse events (AEs) leading to study drug discontinuation were observed” and the tolerability entry is “well tolerated”. The solubility entry in data set [1] (as reported from the healthy volunteer studies) is “high”. In addition, the absorption result in data set [1] (healthy volunteers, SAD/MAD) is “fast”. Moreover, in the data set on PNH patients (setting [3]), the LDH levels entry is reported as “reduction in LDH levels” and the “hemoglobin in the absence of RBC transfusions” value is “improvements in hemoglobin”. The hemolysis result in the data set with PNH patients (200 mg b.i.d., preliminary data) is “control of both intra- and extravascular hemolysis”. The safety and tolerability result in the data set on PNH patients (both PNH studies) was “overall safe and well tolerated”. The safety profile entry with patients with IgAN is reported as “overall well-tolerated safety profile”. Also, in the data set with patients with IgAN (setting [4]), the UPCR entry is recorded as “clinically meaningful UPCR reduction” and the eGFR levels result was “stable/improving”. Moreover, in the data set on patients with IgAN (at 90 days, primary endpoint), the “dose-response effect on UPCR” value is on record as “statistically significant dose-response effect”. For the same compound, the tolerability entry in the data set on patients with C3G is “well-tolerated”. In the data set on patients with C3G (at 12 weeks), the eGFR entry is given as “stabilization” and the “reduction in UPCR” value is on record as 49%.
